Source: patent EP0731697B1, “SSI TYRPHOSTINS AND PHARMACEUTICAL COMPOSITIONS” (priority 1993, dated 1995)
Read-outs that look alike come from different tables or passages of the source.

How the values were obtained:
PDGFR = conditions: even at concentrations above 100 uM; cited from earlier work
mice [1] = assay: LPS toxicity and mortality in mice sensitized with galactosamine; type: in vivo, mice (strain (CD1))
Procedure: In this model for organ failure, mice (strain (CD1)) are injected (i.p.) simultaneously with galactosamine (18 mg/mouse) and LPS (50 ng/mouse). The LD50 of LPS used in this model is approximately 30,000 lower than the LD50 of LPS used alone. The main toxic manifestation in this model is liver damage and mice develop severe hypoglycemia and die within 7-8 hours.
Serial blood glucose determinations were done in individual animals (2 mice per group). […] Administration of the tyrphostins SSI 3, 400 ug/mouse or SSI 17, 200 ug/mouse 2 hours prior to galactosamine and LPS, prevents hypoglycemia (blood glucose level were approximately […] at 0 and the same after 24 hours) and mortality for over 5 days.

Her-2/neu receptor = Her-2/neu receptor (Homo sapiens, UniProt P04626); conditions: even at concentrations above 100 uM; cited from earlier work
Chain of Her-2/neu receptor (P04626 23-1255): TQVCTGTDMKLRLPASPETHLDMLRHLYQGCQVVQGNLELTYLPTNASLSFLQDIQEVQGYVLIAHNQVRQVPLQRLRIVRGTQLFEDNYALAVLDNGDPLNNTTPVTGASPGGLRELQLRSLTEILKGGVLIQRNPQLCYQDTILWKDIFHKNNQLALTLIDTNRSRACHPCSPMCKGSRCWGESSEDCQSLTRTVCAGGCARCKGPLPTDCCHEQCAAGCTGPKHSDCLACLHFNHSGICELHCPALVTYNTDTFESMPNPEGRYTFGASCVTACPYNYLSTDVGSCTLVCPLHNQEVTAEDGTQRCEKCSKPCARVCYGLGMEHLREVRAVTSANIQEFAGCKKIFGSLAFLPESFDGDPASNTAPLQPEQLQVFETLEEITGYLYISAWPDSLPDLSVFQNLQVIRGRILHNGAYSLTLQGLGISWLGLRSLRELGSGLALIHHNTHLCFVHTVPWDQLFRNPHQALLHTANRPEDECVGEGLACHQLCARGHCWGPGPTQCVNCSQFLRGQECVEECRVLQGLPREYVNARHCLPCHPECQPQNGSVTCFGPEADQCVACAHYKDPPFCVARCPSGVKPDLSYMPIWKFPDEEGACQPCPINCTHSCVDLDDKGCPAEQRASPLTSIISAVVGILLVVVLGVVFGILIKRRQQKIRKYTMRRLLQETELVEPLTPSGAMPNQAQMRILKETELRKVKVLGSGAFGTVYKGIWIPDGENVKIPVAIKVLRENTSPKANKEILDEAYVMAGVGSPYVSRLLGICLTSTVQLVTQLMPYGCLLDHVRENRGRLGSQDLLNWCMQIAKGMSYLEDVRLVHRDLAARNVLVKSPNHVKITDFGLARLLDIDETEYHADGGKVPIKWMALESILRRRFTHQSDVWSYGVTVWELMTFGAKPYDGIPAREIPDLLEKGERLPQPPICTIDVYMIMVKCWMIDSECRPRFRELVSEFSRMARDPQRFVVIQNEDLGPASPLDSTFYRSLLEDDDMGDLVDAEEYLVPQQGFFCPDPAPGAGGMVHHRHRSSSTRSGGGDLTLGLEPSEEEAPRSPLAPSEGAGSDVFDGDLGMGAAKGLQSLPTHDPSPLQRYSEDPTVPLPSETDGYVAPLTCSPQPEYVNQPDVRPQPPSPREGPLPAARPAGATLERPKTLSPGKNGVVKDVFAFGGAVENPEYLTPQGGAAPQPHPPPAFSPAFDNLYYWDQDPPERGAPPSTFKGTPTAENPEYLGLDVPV

TNF-α [2] = assay: LPS induced increase in serum TNF-α levels in mice; type: in vivo; conditions: for serum TNF-α levels: 400 ug/mouse i.p. 2 hrs prior to LPS, bled after 2 hours
Description: TNF-α was implicated to mediate many of the toxic effect of LPS. For example, the effect of SSI 3 on serum TNF-α levels in mice which had been treated with LPS was investigated. LPS induced a rapid increase in serum TNF-α levels. […] […] The bioassay gave somewhat higher levels compared to the ELISA. This finding may indicate that the serum from LPS-treated mice contained in addition to TNF-α, other cytotoxic factors.
The amount of TNF-α was quantitated by assessing the extent of killing of the TNF-α sensitive cell line (A9) essentially as described by Ruff and Gilford, G. E. J. Immunol. 125, 1671-1677, (1980). Briefly, mouse A9 fibroblasts were plated in 96-well flat-bottom micro-titer plates at 30,000 cells /0.1 ml to establish a dense monolayer. After incubation for 24 hr at 37 C in a humidified 5% CO2 atmosphere, cycloheximide was added to a final concentration of 50 ug/ml and 100 ul of serially diluted test samples were added to the wells. After incubation for additional 18 hr the supernatants were carefully aspirated, the monolayer were washed twice with PBS and 200 ul of neutral red solution (0.02%) was added. After incubation for 2 hr, cells were washed and the dye that had been absorbed by the live cells was extracted using 200 ul of 50% ethanol. The concentration of the dye was determined by an ELISA autoreader using a 550 nm filter. Murine TNF-α ELISA kit from ENDOGEN Inc., was used for quancitation of murine TNF-α.

p42^MAPK = assay: LPS-induced tyrosine phosphorylation in macrophages; type: cell-based; conditions: murine peritoneal macrophages pre-treated with protective concentrations
Description: LPS-induced tyrosine phosphorylation of a 42 kD protein in murine peritoneal macrophages was inhibited by pre-treating the cells as before with protective concentrations of SSI 3. This protein band was identified as p42^MAPK. […] (Stefanova et al., supra.)

mice [3] = tested on: mice
mice [4] = assay: TNF-α induced lethal toxicity in actinomycin D treated mice; type: in vivo; conditions: actinimycin D:TNF 20 to 2.5 and 15 to 1.0, SSI 3, 400 mg/mouse i.p. 2 hr prior to TNF, 5 mice
Procedure: The effect of SSI 3 on lethal toxicity in mice induced by TNF-α was investigated. Mice are relatively resistant to TNF-α, when applied as a single agent. Pretreatment of mice with actinomycin D renders them extremely sensitive to TNF. (Wallach et al., 140 J. Immun. 2994, 1988). SSI 3 delayed TNF-α induced lethal toxicity in actinomycin D treated mice by approximately 15 hours at two ratios of actinimycin D:TNF (20 to 2.5 and 15 to 1.0). Mice were injected, i.p., with TNF at 0 time. SSI 3, […]/mouse was administered (i.p.) 2 hr, and actinomycin D (ACT.D) was given (i.p.) 30 min prior to TNF injection. Each experimental group contained 5 mice. Injection of actinomycin D alone causes death in 2 out of 5 animals after 120 hours and 3 out of 5 after 144 hours.

[5] = tested on: murine peritoneal macrophages; assay: NO2- production by periodate-activated murine peritoneal macrophages; type: cell-based
Procedure: Nitrite (NO2-) levels were determined in supernatants at the time indicated, as described herein. (Table 5) Values are expressed as means of triplicate cultures. […] Two additional experiments yielded similar results.
NO2- the product of NO oxidation is used to determine NO produced. Nitrite concentration in supernatants of macrophages was measured by a microplate assay method. 100 ul aliquots of supernatants were incubated with an equal volume of Griess reagent (1% sulfanilamide/O.1% naphthylethylene diamine dihydrochloride/2.5% H3PO4) at room temperature for 10 min. The absorbance at 550nm was determined in a microplate reader. Sodium nitrite was used as a standard.
Mice were injected i.p. with 1 ml sodium periodate (5mM). Three to 4 days later, macrophages were washed from the peritoneal cavity with PBS. After centrifugation at 170g for 10 min at […], the cell pellet was resuspended in RPMI 1640 containing 10% heat-inactivated new born calf serum. Adherent macrophage monolayers were obtained by plating the cells in 96-well plastic trays at 4x10^5 cells/well for 2 hr at 37°C in 5% CO2/air. Nonadherent cells were removed by suction and complete medium was added. […]

TNF-α [6] = assay: LPS-induced production of TNF-α by activated murine peritoneal macrophages in vitro
Procedure: The amount of TNF-α was quantitated by assessing the extent of killing of the TNF-α sensitive cell line (A9) essentially as described by Ruff and Gilford, G. E. J. Immunol. […] Briefly, mouse A9 fibroblasts were plated in 96-well flat-bottom micro-titer plates at 30,000 cells /0.1 ml to establish a dense monolayer. After incubation for 24 hr at 37 C in a humidified 5% CO2 atmosphere, cycloheximide was added to a final concentration of 50 ug/ml and 100 ul of serially diluted test samples were added to the wells. After incubation for additional 18 hr the supernatants were carefully aspirated, the monolayer were washed twice with PBS and 200 ul of neutral red solution (0.02%) was added. After incubation for 2 hr, cells were washed and the dye that had been absorbed by the live cells was extracted using 200 ul of 50% ethanol. The concentration of the dye was determined by an ELISA autoreader using a 550 nm filter. Murine TNF-α ELISA kit from ENDOGEN Inc., was used for quancitation of murine TNF-α.
Mice were injected i.p. with 1 ml sodium periodate (5mM). Three to 4 days later, macrophages were washed from the peritoneal cavity with PBS. After centrifugation at 170g for 10 min at 40° C, the cell pellet was resuspended in RPMI 1640 containing 10% heat-inactivated new born calf serum. Adherent macrophage monolayers were obtained by plating the cells in 96-well plastic trays at 4x10^5 cells/well for 2 hr at 37°C in 5% CO2/air. Nonadherent cells were removed by suction and complete medium was added.

[7] = tested on: Murine fibroblastic cells (A9)
Procedure: Tyrphostins at different concentration were added 2 hr prior to TNF. After 24 hrs cells viability was determined by vital staining using neutral red.
Recombinant human TNFα is added to a mouse fibroblastic cell line (A9), cultured in the presence of cyclohexamine and cell viability is monitored after 20 hours. […] The percentage of live cells was measured from 2 hours prior to administration until 4 hours after administration for a control and for TNF at concentrations of 0.2 ng/ml, 0.05 ng/ml, and 1.0 ng/ml.

SMILES: N#CC(C#N)=Cc1ccc([N+](=O)[O-])c(O)c1 [SSI 3]
- effect on PDGFR (PDGFR): no effect
- blood glucose level (mice [1]; after 24 hours, SSI 3 400 ug/mouse or SSI 17 200 ug/mouse 2 hours prior to galactosamine (18 mg/mouse) and LPS (50 ng/mouse), 2 mice per group): approximately 100 % mg
- hypoglycemia and mortality (mice [1]; mortality for over 5 days, SSI 3 400 ug/mouse or SSI 17 200 ug/mouse 2 hours prior to galactosamine and LPS): prevents
- effect on Her-2/neu receptor (Her-2/neu receptor): no effect
- serum TNF-α levels (TNF-α [2]; higher of two printed values, presumably bioassay, LPS alone 14): 4 ng/mL
- serum TNF-α levels (TNF-α [2]; lower of two printed values, presumably ELISA, LPS alone 7): 3 ng/mL
- Serum TNF-α (TNF-α [2]; LPS 200 µg/mouse, AG 300 µg/mouse 2 hrs prior to LPS, 1hr, mean (two single values)): 2.8 (1.2, 4.4) ng/ml
- Serum TNF-α (TNF-α [2]; LPS 200 µg/mouse, AG 300 µg/mouse 2 hrs prior to LPS, 2hr, mean (two single values)): 3.6 (2.7, 4.5) ng/ml
- Serum TNF-α (TNF-α [2]; no LPS (-), AG 300 µg/mouse, 1hr): 16.3 ng/mL
- LPS-induced tyrosine phosphorylation of a 42 kD protein (p42^MAPK): inhibited
- mice survived (mice [3]; 200 ug/mouse, LPS 1.5 mg/mouse): 3 out of 5 mice
- mice (still alive) (mice [3]; 12 h): 20 mice
- mice (still alive) (mice [3]; 36 h): 18 mice
- mice (still alive) (mice [3]; 60 h): 18 mice
- delay of TNF-α induced lethal toxicity (mice [4]): approximately 15 hours
- LPS induced NO production ([5]; 50 um, added 2 hours prior to LPS, 24 hours): markedly inhibit
- NO production ([5]; 50 um, from an initial level of 70 uM (no LPS), 24 hours): ~30 µM
- NO production ([5]; 50 um, from an initial level of 40 (10 ug/ml of LPS), 24 hours): approximately 20 uM
- NO2- production in unstimulated and LPS-stimulated periodate-activated murine macrophages ([5]; LPS (10 mg/ml)): effectively inhibited
- NO2- Production by Macrophages ([5]; SSI 20 uM, LPS 10 ug, 1 DAY): 30,2 µg
- NO2- Production by Macrophages ([5]; SSI 20 uM, LPS 10 ug, 2 DAY): 91 µg
- NO2- Production by Macrophages ([5]; SSI 20 uM, LPS 10 ug, 3 DAY): 90,1 µg
- NO2- Production by Macrophages ([5]; SSI 20 uM, no LPS, 1 DAY): 11,8 µg
- NO2- Production by Macrophages ([5]; SSI 20 uM, no LPS, 2 DAY): 17,5 µg
- NO2- Production by Macrophages ([5]; SSI 20 uM, no LPS, 3 DAY): 7,5 µg
- NO2- Production by Macrophages ([5]; SSI 50uM, LPS 10 ug, 1 DAY): 6,1 µg
- NO2- Production by Macrophages ([5]; SSI 50uM, LPS 10 ug, 2 DAY): 31,4 µg
- NO2- Production by Macrophages ([5]; SSI 50uM, LPS 10 ug, 3 DAY): 19,2 µg
- NO2- Production by Macrophages ([5]; SSI 50 uM, no LPS, 1 DAY): 5 µg
- NO2- Production by Macrophages ([5]; SSI 50 uM, no LPS, 2 DAY): 8,6 µg
- NO2- Production by Macrophages ([5]; SSI 50 uM, no LPS, 3 DAY): 4,8 µg
- TNF-α (TNF-α [6]; LPS +): <5 pg/mL
- TNF-α (TNF-α [6]; LPS -): <5 pg/mL
- ability to inhibit LPS-induced production of TNF-α by activated murine peritoneal macrophages in vitro (TNF-α [6]; among the tyrphostins tested): most potent
- blocking TNF-α induced cytotoxicity in vitro [7]: active
- TNF-α induced cytotoxicity, in vitro ([7]; A9 cells, 24 hours with TNF, cyclohexamide 50 ug/ml, tyrphostins added 2 hr prior to TNF, neutral red): reduced
- TNF toxicity (percentage of live cells) ([7]; SSI 3 50 uM, SSI 16 2 uM, SSI 17 2 and 10 uM, A9 cells with cyclohexamine, viability after 20 hours, TNF 0.2, 0.05 and 1.0 ng/ml): prevent TNF toxicity to different degrees
